Experimental data published in US12497409B2, “Crystal form of gonadotropin releasing hormone antagonist, preparation method therefor, and use thereof” (Shenzhen Rentai Pharmatech Ltd., priority 2019, dated 2025).
Values belong to the compound of their own block, whether it stands above or below them.

Legend:
Format in all cases: physicochemical
[1] = Saturation solubility in water (HPLC); conditions: for Saturation solubility: in water, room temperature, stirred for 12 hours, excess solid, HPLC; for solubility, in words: saturation solubility, forms C and D compared with crystal form A
From the text: Samples for test: a crystal form C and a crystal form D of a compound of a formula (I), their preparation methods being respectively shown in Example 1 and Example 2, a preparation method of the crystal form A of the compound of the formula (I) being shown in Comparative example 1.
Test method: the crystal form A, the crystal form C, and the crystal form D of the compound of the formula (I) were respectively taken, to measure their saturation solubility in water, a specific method was: a suitable amount of the samples for test were respectively taken, and put into a […] sample bottle, 3 ml of a water solution was added, the solid was excess, and the obtained solution was placed at room temperature and stirred for 12 hours, and solubility in water was measured by using an HPLC method. The operation conditions of HPLC are as follows:
instrument: high performance liquid chromatograph (model: Thermo U3000)
chromatographic column: Agilent C18 column (5 μm, 150 mm×4.6 mm)
mobile phase composition and gradient elution program: […]
Detection wavelength: 254.4 nm;
column temperature: 30° C.

[2] = Hygroscopicity test, dynamic vapor sorption (DVS); conditions: for hygroscopicity, in words: forms C and D compared with crystal form A
[3] = Stability test (illumination, high temperature, high humidity; XRPD and HPLC purity); conditions: for Initial purity (day 0): day 0, before stress, HPLC; for crystal transformation (XRPD): 10 days
Method: Illumination stability: samples of the crystal form C and the crystal form D of the compound of the formula (I) (respectively prepared in Example 1 and Example 2) were respectively taken and placed at 25° C. under an illumination condition of 4500 Lux for 10 days, and samples were taken respectively on day 5 and day 10 at fixed time points to determine XRPD patterns of the crystal forms C and D and the content of N-(4-(1-(2,6-difluorobenzyl)-5-((dimethylamino)methyl)-3-(6-methoxy-3-pyridazinyl)-2,4-dioxo-1,2,3,4-tetrahydrothieno[2,3-d]pyrimidin-6-yl)phenyl)-N′-methoxyurea in the crystal forms C and D, which were compared with those of the samples on day 0. High temperature stability: samples of the crystal form C and the crystal form D of the compound of the formula (I) (respectively prepared in Example 1 and Example 2) were respectively taken and placed at 60° C. for 10 days, and samples were taken respectively on day 5 and day 10 at fixed time points to determine XRPD patterns of the crystal forms C and D and the content of N-(4-(1-(2,6-difluorobenzyl)-5-((dimethylamino)methyl)-3-(6-methoxy-3-pyridazinyl)-2,4-dioxo-1,2,3,4-tetrahydrothieno[2,3-d]pyrimidin-6-yl)phenyl)-N′-methoxyurea in the crystal form C and the crystal form D, which were compared with those of the samples on day 0. High humidity stability: samples of the crystal form C and the crystal form D of the compound of the formula (I) (respectively prepared in Example 1 and Example 2) were respectively taken and placed at 40° C. at 75% RH for 10 days, and samples were taken respectively on day 5 and day 10 at fixed time points to determine XRPD patterns of the crystal forms C and D and the content of N-(4-(1-(2,6-difluorobenzyl)-5-((dimethylamino)methyl)-3-(6-methoxy-3-pyridazinyl)-2,4-dioxo-1,2,3,4-tetrahydrothieno[2,3-d]pyrimidin-6-yl)phenyl)-N′-methoxyurea in the crystal form C and the crystal form D, which were compared with those of the samples on day 0. A specific stability test method can refer to the method in appendix XI C of Part II of Chinese Pharmacopoeia (2015 edition); the purity detection adopts an HPLC method, and the purity can be determined by an external standard method with reference to the method in appendix VD of Chinese Pharmacopoeia (2015 edition) by using the samples on day 0 as a reference substance. instrument: high performance liquid chromatograph (model: Thermo U3000) chromatographic column: Agilent C18 column (5 μm, 150 mm×4.6 mm) mobile phase composition and gradient elution program: [table] detection wavelength: 254.4 nm; flow rate: 1 ml/min; sample size:15 μL; column temperature: 30° C.

[4] = as above; conditions: high humidity (25° C., 92.5% RH), 10 days
[5] = 25° C., 4500 Lux (illumination), listed as crystal form C
[6] = 40° C., 75% RH (high humidity), listed as crystal form C
[7] = 60° C. (high temperature), listed as crystal form C
[8] = 25° C., 4500 Lux (illumination), listed as crystal form D
[9] = 40° C., 75% RH (high humidity), listed as crystal form D
[10] = 60° C. (high temperature), listed as crystal form D

- Saturation solubility [1]: 28.50 µg/mL
- solubility, in words ([1]; listed as crystal form A): low solubility
- moisture absorption (hygroscopy gain) ([2]; 25° C., humidity gradually increased from 0 to 50% RH): 0.57%
- hygroscopicity (hygroscopy gain) ([2]; 25° C., humidity gradually increased from 0 to 90% RH): 25.84%
- hygroscopicity, in words ([2]; listed as crystal form A): high hygroscopicity
Structure (SMILES): CONC(=O)Nc1ccc(-c2sc3c(c2CN(C)C)c(=O)n(-c2ccc(OC)nn2)c(=O)n3Cc2c(F)cccc2F)cc1 [Crystal form A, N-(4-(1-(2,6-difluorobenzyl)-5-((dimethylamino)methyl)-3-(6-methoxy-3-pyridazinyl)-2,4-dioxo-1,2,3,4-tetrahydrothieno[2,3-d]pyrimidin-6-yl)phenyl)-N′-methoxyurea]

- Purity change on day 10 [3, 5]: 0.49%
- Purity on day 5 [3, 5]: 98.99%
- Purity on day 10 [3, 5]: 98.84%
- Purity change on day 10 [3, 6]: 3.33%
- Purity on day 5 [3, 6]: 96.88%
- Purity on day 10 [3, 6]: 96%
- Purity change on day 10 [3, 7]: 2.58%
- Purity on day 5 [3, 7]: 97.89%
- Purity on day 10 [3, 7]: 96.75%
- Initial purity (day 0) ([3]; listed as crystal form C): 99.33%
- crystal transformation (XRPD) ([3]; high temperature (60° C.)): no crystal transformation
- crystal transformation (XRPD) ([3]; strong illumination (25° C., 4500 Lux)): no crystal transformation
- Saturation solubility ([1]; listed as crystal form C): 101.75 µg/mL
- solubility, in words ([1]; listed as crystal form C): significantly improved
- hygroscopicity, in words ([2]; listed as crystal form C): significantly decreased
- crystal transformation (XRPD) [4]: no crystal transformation
Structure (SMILES): CONC(=O)Nc1ccc(-c2sc3c(c2CN(C)C)c(=O)n(-c2ccc(OC)nn2)c(=O)n3Cc2c(F)cccc2F)cc1 [Crystal form C, N-(4-(1-(2,6-difluorobenzyl)-5-((dimethylamino)methyl)-3-(6-methoxy-3-pyridazinyl)-2,4-dioxo-1,2,3,4-tetrahydrothieno[2,3-d]pyrimidin-6-yl)phenyl)-N′-methoxyurea]

- Purity change on day 10 [3, 8]: 0.50%
- Purity on day 5 [3, 8]: 98.1%
- Purity on day 10 [3, 8]: 98.57%
- Purity change on day 10 [3, 9]: 1.86%
- Purity on day 5 [3, 9]: 97.88%
- Purity on day 10 [3, 9]: 97.21%
- Purity change on day 10 [3, 10]: 2.56%
- Purity on day 5 [3, 10]: 96.25%
- Purity on day 10 [3, 10]: 96.51%
- Initial purity (day 0) ([3]; listed as crystal form D): 99.07%
- Saturation solubility ([1]; listed as crystal form D): 87.21 µg/mL
- solubility, in words ([1]; listed as crystal form D): significantly improved
- hygroscopicity, in words ([2]; listed as crystal form D): significantly decreased
Structure (SMILES): CONC(=O)Nc1ccc(-c2sc3c(c2CN(C)C)c(=O)n(-c2ccc(OC)nn2)c(=O)n3Cc2c(F)cccc2F)cc1 [Crystal form D, N-(4-(1-(2,6-difluorobenzyl)-5-((dimethylamino)methyl)-3-(6-methoxy-3-pyridazinyl)-2,4-dioxo-1,2,3,4-tetrahydrothieno[2,3-d]pyrimidin-6-yl)phenyl)-N′-methoxyurea]
